Source: patent publication US20100215588A1, “THERAPEUTIC DELIVERY OF INHIBITORY NUCLEIC ACID MOLECULES TO THE RESPIRATORY SYSTEM” (priority 2007, published 2010)
Entries after “also recorded” stand apart in the source; their conditions may differ.

Columns and labels:
Assay type in all cases: in vivo, cynomolgus monkeys
[1] = Semi-quantitative distribution of I5NP siRNA in lung (hybridization assay)
Description: (§1) On Day 15 of the study, two of the available animals (101 and 102) were administered a target dose of 35 mg/kg of a mixture of I5NP and REDD14Cy3.5 (fluorescence-labelled) siRNA via an oronasal mask as a nebulized aerosol generated by the Aeroneb device. A 2.0 L/min dilution airflow was used. The total dose of siRNA administered was calculated, based on the bodyweights and measured respiratory minute volumes of the animals, and on the achieved output of the Aeroneb device using the formulation concentration of 40 mg/mL of siRNA. The administered dose was adjusted by changing the exposure times for the animals
(§2) On Day 35 of the Study, the three remaining main study animals (103 to 105) were administered a target dose of 35 mg/kg of I5NP siRNA via an oronasal mask as a nebulized aerosol generated by the Aeroneb device. A 2.0 L/min dilution airflow was used. The total dose administered was calculated, based on the bodyweights and measured respiratory minute volumes of the animals, and on the achieved output of the Aeroneb device using the formulation concentration of 40 mg/mL. The administered dose was adjusted by changing the exposure times for the animals.
At the time of necropsy following Treatment 2, the lungs of animal 101 were removed from the animal. The lungs were separated into individual lobes. The bronchi/bronchioles and immediately surrounding regions of each lobe were dissected out as carefully as was practicable and pooled, per lobe. The remaining tissue areas were pooled, per lobe. Each pooled sample (i.e. bronchi/bronchioles and remaining tissue for each lobe) was stored deep-frozen (−80° C.) for analysis via hybridization assay. Lung samples from animal 101 were tracked using the Watson LIMS system.
At each specified time of necropsy following Treatment 3, the lungs of animals 103, 104 or 105 were removed from the animals. Each set of lungs were separated into individual lobes. The bronchi/bronchioles and immediately surrounding regions of each lobe were dissected out as carefully as was practicable and pooled, per lobe. The remaining tissue areas were pooled, per lobe. […]
All lung samples from animal 101 (i.e. left cranial lobe, bronchioles and remainder; left caudal lobe, bronchioles and remainder; right cranial lobe, bronchioles and remainder; right middle lobe, bronchioles and remainder; right caudal lobe, bronchioles and remainder and right accessory lobe, bronchioles and remainder) were analyzed for I5NP siRNA concentration. For animals 103, 104 and 105, left cranial lobe (bronchioles and remainder) and right caudal lobe (bronchioles and remainder) were analyzed for I5NP siRNA concentration. […] The results obtained for lung samples were considered as semi-quantitative.

[2] = Clinical observations after inhalation doses of siRNA
Description: Male cynomolgus monkeys were administered single oronasal inhalation doses of a nebulised aerosol formulation of fluorescent-labelled REDD14Cy3.5 and/or I5NP siRNAs. Following dosing, the concentration of I5NP in plasma, the non-compartmental disposition kinetics of I5NP in plasma, the qualitative distribution of REDD14Cy3.5 in lungs and the semi-quantitative distribution of I5NP in lungs were determined.
Animals were treated with test aerosols using a pediatric anesthetic-type oronasal face mask fitted with inlet and outlet tubes and a breathing loop. During treatment, animals were placed in a restraint sling. The test atmospheres were generated using an Aeroneb (Aerogen) nebulizer, and assessed for output as described below. The level of exposure to the test article was achieved by varying the duration of exposure.
as §2, with “Day 1” for “Day 35”, “the study, four of” for “the Study,”, “the available monkeys (101” for “the three remaining main study animals (103”, “to 104)” for “to 105)”, “animals. […]” for “animals.”

[3] = Qualitative distribution of REDD14Cy3.5 siRNA in lung and kidney (fluorescence analysis); conditions: after oronasal inhalation
Description: as §1
At the time of necropsy following Treatment 2, the lungs, bronchi and trachea of animal 102 were removed from the animal. The lungs were perfused with 4% paraformaldehyde, introduced using a syringe, via the trachea and/or bronchus and stored in this fixative at ambient temperature for a period of approximately 21 hours. Following this, as much as possible of the original fixative fluid was withdrawn by syringe via the trachea/bronchus and replaced with 0.2% paraformaldehyde. The fixed lungs were analyzed for fluorescence distribution.
At the time of necropsy following Treatment 2, the right kidney of animal 102 was removed from the animal. The kidney was dissected into quarters by making one longitudinal and one transverse cut, each to pass through the hilus, and then immersed in 4% paraformaldehyde and refrigerated for approximately 21 hours. Following this, the fixing solution was changed to 0.2% paraformaldehyde and the kidney was analyzed for fluorescence distribution.
Following Treatment 2, lung and kidney samples from animal 102 were analyzed for distribution of fluorescence (from REDD14Cy3.5 siRNA). The results were considered to be qualitative.

With “I5NP: exemplary p53 inhibiting siRNA; sense GAGAAUAUUUCACCCUUCA, antisense UGAAGGGUGAAAUAUUCUC (chemistry not given here)” the “I5NP concentration in bronchioles and peripheral lung tissues” value ([1]; Treatment 2 (I5NP:REDD14Cy3.5 9:1), animal 101, approximately 30 minutes post-end of dosing, all 6 lobes, semi-quantitative) was “found in high concentrations in both bronchioles and in peripheral tissues of all lobes of each lung”, the “I5NP concentration, peripheral tissues versus bronchiolar samples” value ([1]; Treatment 2, animal 101, approximately 30 minutes post-end of dosing) was “generally higher in the peripheral tissues than in the bronchiolar samples” and the “relative concentrations in bronchiolar and peripheral lung tissues over time” value ([1]; Treatment 3, animals 103, 104, 105, 6, 24 and 72 h post-end of dosing, left cranial and right caudal lobes) was “still detectible at 72 hours post-end of dosing”. For the same substance, the “levels in lungs compared with plasma” value ([1]; all time points post-dose) was “at all times greater than those in plasma; also recorded: higher than in plasma”, the “macroscopic findings in organs and tissues” value ([2]; necropsy after inhalation doses) was “of no toxicological significance” and the treatment-related clinical signs ([2]; single oronasal inhalation doses, target 35 mg/kg) was “No treatment-related clinical signs were observed”. For the same substance, the “distribution in lung, I5NP (hybridization) and REDD14Cy3.5 (fluorescence) compared” value [3] was “little difference in the distribution of the two test articles in lung”.
